Source: ChEMBL document CHEMBL4138079, “New cycloartane type-triterpenoids from the areal parts of Caragana sukiensis and their biological activities” (Eur J Med Chem, 2017)
Activity calls are given as the source filed them. No cut-off for these calls is given here.

What was measured:
A549 [1] = experiment: Cell cycle arrest in human A549 cells assessed as G0/G1 phase accumulation at 2 uM after 48 hrs by propidium iodide staining based FACS analysis (reference value: 77.91%); assay type: functional
A549 [2] = experiment: Induction of apoptosis in human A549 cells after 48 hrs by Annexin V-FITC/propidium iodide staining based flow cytometry; assay type: functional, cell-based
HEK293 = experiment: Cytotoxicity against human HEK293 cells assessed as reduction in cell viability after 48 hrs by MTT assay; assay type: cell-based; settings: HEK293, 48 h
MCF7 = experiment: Cytotoxicity against human MCF7 cells assessed as reduction in cell viability after 48 hrs by MTT assay; assay type: functional, cell-based; settings: MCF7, 48 h
A549 [3] = experiment: Induction of apoptosis in human A549 cells assessed as cell population with intact mitochondrial membrane potential at 2 uM measured after 48 hrs by JC-1 staining based flow cytometry (reference value: 37.5%); assay type: functional
A549 [4] = experiment: Induction of apoptosis in human A549 cells assessed as cell population with mitochondrial membrane potential loss at 2 uM measured after 48 hrs by JC-1 staining based flow cytometry (reference value: 27.4%); assay type: functional
HeLa = experiment: Cytotoxicity against human HeLa cells assessed as reduction in cell viability after 48 hrs by MTT assay; assay type: functional, cell-based
A549 [5] = experiment: Induction of apoptosis in human A549 cells assessed as necrotic cells at 2 uM after 48 hrs by Annexin V-FITC/propidium iodide staining based flow cytometry (reference value: 0.35%); assay type: functional
A549 [6] = experiment: Induction of apoptosis in human A549 cells assessed as cell population with intact mitochondrial membrane potential at 1 uM measured after 48 hrs by JC-1 staining based flow cytometry (reference value: 37.5%); assay type: functional
Spodoptera litura [7] = experiment: Antifeedant activity in Spodoptera litura third-instar larvae assessed as increase in feeding deterrence by measuring antifeedant index at 5 ug/cm2 after 24 hrs by leaf disk method; assay type: functional
A549 [8] = experiment: Induction of apoptosis in human A549 cells assessed as necrotic cells at 1 uM after 48 hrs by Annexin V-FITC/propidium iodide staining based flow cytometry (reference value: 0.35%); assay type: functional
A549 [9] = experiment: Cell cycle arrest in human A549 cells assessed as G2/M phase accumulation at 1 uM after 48 hrs by propidium iodide staining based FACS analysis (reference value: 16.81%); assay type: functional
A549 [10] = experiment: Induction of apoptosis in human A549 cells assessed as early apoptotic cells at 2 uM after 48 hrs by Annexin V-FITC/propidium iodide staining based flow cytometry (reference value: 3.24%); assay type: functional
A549 [11] = experiment: Cell cycle arrest in human A549 cells assessed as G0/G1 phase accumulation at 1 uM after 48 hrs by propidium iodide staining based FACS analysis (reference value: 77.91%); assay type: functional
Spodoptera litura [12] = experiment: Antifeedant activity in Spodoptera litura assessed as pupal mortality after 24 hrs by leaf disk method (reference value: 0%); assay type: functional
A549 [13] = experiment: Induction of apoptosis in human A549 cells assessed as late apoptotic cells at 2 uM after 48 hrs by Annexin V-FITC/propidium iodide staining based flow cytometry (reference value: 5.19%); assay type: functional
Spodoptera litura [14] = experiment: Insecticidal activity in Spodoptera litura third-instar larvae assessed as larval mortality at 5 ug/cm2 after 24 hrs by leaf disk method relative to control; assay type: functional; settings: foliar
A549 [15] = experiment: Cell cycle arrest in human A549 cells assessed as S phase accumulation at 2 uM after 48 hrs by propidium iodide staining based FACS analysis (reference value: 2.45%); assay type: functional
A549 [16] = experiment: Induction of apoptosis in human A549 cells assessed as cell population with mitochondrial membrane potential loss at 1 uM measured after 48 hrs by JC-1 staining based flow cytometry (reference value: 27.4%); assay type: functional
A549 [17] = experiment: Cell cycle arrest in human A549 cells assessed as sub G1 phase accumulation at 2 uM after 48 hrs by propidium iodide staining based FACS analysis (reference value: 0.96%); assay type: functional
A549 [18] = experiment: Induction of apoptosis in human A549 cells assessed as morphological change at 1 uM after 48 hrs by Hoechst 33258 staining based fluorescence microscopic analysis; assay type: functional, cell-based
A549 [19] = experiment: Cell cycle arrest in human A549 cells assessed as G2/M phase accumulation at 2 uM after 48 hrs by propidium iodide staining based FACS analysis (reference value: 16.81%); assay type: functional
Spodoptera litura [20] = experiment: Antifeedant activity in Spodoptera litura third-instar larvae assessed as larval duration time after 24 hrs by leaf disk method (reference value: 10.1 +/- 0.1 day); assay type: functional
A549 [21] = experiment: Induction of apoptosis in human A549 cells assessed as early apoptotic cells at 1 uM after 48 hrs by Annexin V-FITC/propidium iodide staining based flow cytometry (reference value: 3.24%); assay type: functional
Spodoptera litura [22] = experiment: Antifeedant activity in Spodoptera litura third-instar larvae assessed as increase in feeding deterrence after 24 hrs by leaf disk method; assay type: functional
A549 [23] = experiment: Induction of apoptosis in human A549 cells assessed as live cells at 1 uM after 48 hrs by Annexin V-FITC/propidium iodide staining based flow cytometry (reference value: 91.22%); assay type: functional
A549 [24] = experiment: Cell cycle arrest in human A549 cells assessed as sub G1 phase accumulation at 1 uM after 48 hrs by propidium iodide staining based FACS analysis (reference value: 0.96%); assay type: functional
A549 [25] = experiment: Induction of apoptosis in human A549 cells assessed as live cells at 2 uM after 48 hrs by Annexin V-FITC/propidium iodide staining based flow cytometry (reference value: 91.22%); assay type: functional
A549 [26] = experiment: Cytotoxicity against human A549 cells assessed as reduction in cell viability after 48 hrs by MTT assay; assay type: functional, cell-based; settings: A549, 48 h
A549 [27] = experiment: Cell cycle arrest in human A549 cells assessed as G0/G1 phase accumulation after 48 hrs by propidium iodide staining based FACS analysis; assay type: functional
A549 [28] = experiment: Cell cycle arrest in human A549 cells assessed as S phase accumulation at 1 uM after 48 hrs by propidium iodide staining based FACS analysis (reference value: 2.45%); assay type: functional
DU-145 = experiment: Cytotoxicity against human DU145 cells assessed as reduction in cell viability after 48 hrs by MTT assay; assay type: functional, cell-based; settings: DU-145, 48 h
Spodoptera litura [29] = experiment: Antifeedant activity in Spodoptera litura assessed as pupal weight after 24 hrs by leaf disk method (reference value: 0.245 +/- 0.02 g); assay type: functional
A549 [30] = experiment: Induction of apoptosis in human A549 cells assessed as late apoptotic cells at 1 uM after 48 hrs by Annexin V-FITC/propidium iodide staining based flow cytometry (reference value: 5.19%); assay type: functional

CC(C)(O)[C@@H]1CC[C@](C)([C@H]2[C@@H](O)C[C@@]3(C)[C@@H]4C[C@H](O)[C@H]5C(C)(C)[C@@H](O)CC[C@@]56C[C@@]46CC[C@]23C)O1
Activity (A549 [1]): 90.47%
Activity (A549 [2]): Dose-dependent effect
IC50 (HEK293): 128 µM
IC50 (MCF7): 1.78 µM
Activity (A549 [3]): 38.6%
Activity (A549 [4]): 31.1%
IC50 (HeLa): 2.2 µM
Activity (A549 [5]): 1.16%
Activity (A549 [6]): 39.6%
Activity_index (Spodoptera litura [7]): 59.9
Activity (A549 [8]): 0.96%
Activity (A549 [9]): 14.45%
Activity (A549 [10]): 3.94%
Activity (A549 [11]): 82.05%
mortality (Spodoptera litura [12]): 89.6%
Activity (A549 [13]): 23.83%
mortality at 5 µg/cm2 (Spodoptera litura [14]): 11.8%
Activity (A549 [15]): 0.87%
Activity (A549 [16]): 29%
Activity (A549 [17]): 0.84%
Activity (A549 [18]): Active
Activity (A549 [19]): 7.29%
Time (Spodoptera litura [20]): 14.2 days
Activity (A549 [21]): 4.17%
ED50 (Spodoptera litura [22]): 11.96 microg/cm2
Activity (A549 [23]): 83.55%
Activity (A549 [24]): 0.4%
Activity (A549 [25]): 71.07%
IC50 (A549 [26]): 1.54 µM
Activity (A549 [27]): Dose-dependent effect
Activity (A549 [28]): 2.41%
IC50 (DU-145): 7.26 µM
Activity (Spodoptera litura [29]): 0.199 g
Activity (A549 [30]): 11.31%
